Experimental data reported in patent publication US5336673A, “3-substituted cephem compounds” (priority 1990, dated 1994).
Values after ≈ are worked out from the molar mass of the structure shown.

What was measured:
[1] = system: Streptococcus pyogenes A 77; assay: Antibacterial activity, MIC by Agar dilution method, standard test strain 2; format: cell-based; details: A77, 10^7 CFU/ml, 37° C., 18 hours
Method: (§1) The antibacterial activity was determined by an Agar dilution method as described below.
(§2) That is, the two-fold serial dilutions of the antibacterial compounds (1000 μg compound/ml) were prepared and dispersed in Muller Hinton Agar in a petri dish to a concentration of 100~0.002 μg/ml. The culture broths of standard test strains were inoculated on the medium to a concentration 10^7 CFU/ml, and incubated at 37° C. for 18 hours. The concentration of compounds(I) at which the strains were not grown was regarded as minimum inhibition concentration (MIC).
(§3) The results of antibacterial activity test of the representative examples of the compound (I) against 20 standard test strains shown in terms of MIC were indicated in Table 1.
2. Streptococcus pyogenes A 77

[2] = system: Staphyloccus aureus 285; assay: Antibacterial activity, MIC by Agar dilution method, standard test strain 5; format: cell-based; details: 10^7 CFU/ml, 37° C., 18 hours
Method: as §1, §2, §3
5. Staphyloccus aureus 285

[3] = system: Escherichia coli DC O; assay: Antibacterial activity, MIC by Agar dilution method, standard test strain 8; format: cell-based; details: Escherichia coli, 18 h
Method: as §1, §2, §3

[4] = system: Pseudomonas aeruginosa 1771; assay: Antibacterial activity, MIC by Agar dilution method, standard test strain 14; format: cell-based; details: 10^7 CFU/ml, 37° C., 18 hours
Method: as §1, §2, §3
14. Pseudomonas aeruginosa 1771

[5] = system: Klebsiella oxytoca 1082E; assay: Antibacterial activity, MIC by Agar dilution method, standard test strain 17; format: cell-based; details: 10^7 CFU/ml, 37° C., 18 hours
Method: as §1, §2, §3

[6] = system: D Streptococcus II; assay: MIC against clinically isolated strains; format: cell-based; details: 18 h, 20 clinical isolates
Method: as §1, §2

[7] = system: D Streptococcus I; assay: MIC against clinically isolated strains; format: cell-based; details: 18 h, 20 clinical isolates
Method: as §1, §2

[8] = system: Enterobacter cloacae; assay: MIC against clinically isolated strains; format: cell-based; details: 20 clinical isolates
Method: as §1, §2

[9] = system: Enterococcus II; assay: MIC against clinically isolated strains; format: cell-based; details: 20 clinical isolates
Method: as §1, §2

[10] = system: Enterococcus I; assay: MIC against clinically isolated strains; format: cell-based; details: 18 h, 20 clinical isolates
Method: as §1, §2

[11] = system: Escherichia coli; assay: MIC against clinically isolated strains; format: cell-based; details: 18 h, 20 clinical isolates
Method: as §1, §2

[12] = system: Morganella morganil; assay: MIC against clinically isolated strains; format: cell-based; details: 18 h, 5 clinical isolates
Method: as §1, §2

[13] = system: Proteus vulgaris; assay: MIC against clinically isolated strains; format: cell-based; details: 18 h, 5 clinical isolates
Method: as §1, §2

[14] = system: Providencia rettgeri; assay: MIC against clinically isolated strains; format: cell-based; details: 18 h, 6 clinical isolates
Method: as §1, §2

[15] = system: Pseudomonas II; assay: MIC against clinically isolated strains; format: cell-based; details: 18 h, 19 clinical isolates
Method: as §1, §2

[16] = system: Pseudomonas I; assay: MIC against clinically isolated strains; format: cell-based; details: 18 h, 19 clinical isolates
Method: as §1, §2

[17] = system: Pseudomonas aeruginosa; assay: MIC against clinically isolated strains; format: cell-based; details: 18 h, 20 clinical isolates
Method: as §1, §2

[18] = system: Serratia spp; assay: MIC against clinically isolated strains; format: cell-based; details: 18 h, 20 clinical isolates
Method: as §1, §2

[19] = system: Streptococcus II; assay: MIC against clinically isolated strains; format: cell-based; details: 18 h, 17 clinical isolates
Method: as §1, §2

[20] = system: Streptococcus I; assay: MIC against clinically isolated strains; format: cell-based; details: 20 clinical isolates
Method: as §1, §2

[21] = biological target: T1, β-lactamase from Citrobacter freundii (Citrobacter freundii, UniProt P05193); assay: Stability against β-lactamase, relative hydrolysis; format: biochemical; details: Citrobacter freundii enzyme; 100 μM; relative(percentage), Cephaloridine taken as 100; OD at 260 nm
T1 construct: directly isolated from Enterobacter cloacae P99, E. coli TEM and Citrobacter freundii; endogenous in cells
T1 sequence (P05193 21-381): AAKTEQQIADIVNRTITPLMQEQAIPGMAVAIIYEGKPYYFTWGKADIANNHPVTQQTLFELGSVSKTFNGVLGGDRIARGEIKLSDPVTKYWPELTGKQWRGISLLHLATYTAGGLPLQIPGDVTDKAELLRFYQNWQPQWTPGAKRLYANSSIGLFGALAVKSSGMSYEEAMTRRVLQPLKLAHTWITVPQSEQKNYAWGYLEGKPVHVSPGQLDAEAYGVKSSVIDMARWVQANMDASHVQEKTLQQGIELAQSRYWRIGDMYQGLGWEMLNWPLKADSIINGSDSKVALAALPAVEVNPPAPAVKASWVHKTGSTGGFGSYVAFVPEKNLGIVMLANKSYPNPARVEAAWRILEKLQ
Method: (§4) In order to establish the usefulness in clinical applications of the compounds provided by the invention, the compound of Example 18 was tested for stability against the β-lactamase and for antibacterial activity on systemic infection model.
(§5) First, the stability against the β-lactamase was tested by determining the relative(percentage) hydrolysis of the compound of Example 18, relative to that of Cephaloridine, taking the absolute rate of Cephaloridine as 100.
(§6) The β-lactamases employed in the test were directly isolated from Enterobacter cloacae P99, E. coli TEM and Citrobacter freundii, and the antibiotics for comparison were Cephaloridine, Cephradine, Cefoperazone and Cefotaxime.
(§7) Cephaloridine, other known antibiotics and the compound of Example 18 were reacted with each of the enzymes isolated from the strains and the OD were determined at 260 nm, λmax of Cephaloridine. The relative hydrolysis of various compounds were calculated relative to the OD of Cephaloridine.

[22] = biological target: T2, β-lactamase from E. coli TEM (Escherichia coli, UniProt P62593); assay: Stability against β-lactamase, relative hydrolysis; format: biochemical; details: E. coli TEM enzyme; 100 μM; relative(percentage), Cephaloridine taken as 100; OD at 260 nm
T2 construct: directly isolated from Enterobacter cloacae P99, E. coli TEM and Citrobacter freundii; endogenous in cells; host or cells: E. coli TEM (plasmid-carried enzyme of the strain)
T2 sequence (P62593 24-286 limits assumed): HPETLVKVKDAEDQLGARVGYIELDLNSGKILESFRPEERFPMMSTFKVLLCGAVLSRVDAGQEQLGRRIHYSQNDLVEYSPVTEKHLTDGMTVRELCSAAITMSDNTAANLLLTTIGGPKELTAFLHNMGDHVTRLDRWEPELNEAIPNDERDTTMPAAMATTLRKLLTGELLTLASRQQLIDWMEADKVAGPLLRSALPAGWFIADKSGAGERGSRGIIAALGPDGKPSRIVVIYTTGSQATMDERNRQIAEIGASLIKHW
Method: as §4, §5, §6, §7

[23] = Acute toxcity test; details: in vivo, male ICR-mouse, after 1 week
Method: Further, in order to illustrate the usefulness of the compounds (I) as a drug, compounds of Examples 12, 18 and 36 were tested for acute toxcity by using 4 weeks-old male ICR-mouse as a test animal.
the compounds were dissolved in physiological saline and phosphate buffered solution (pH 7.0), or if they were […], suspended in carboxymethylcellulose or gum Arabic and then mixed with phosphate buffered solution.
The solution or mixture was administered to the tested animals intravenously or subcutaneously and, after 1 week, the number of surviving animals was calculated.

[24] = system: β-lactamase producing strains such as Pseudomonas aeruginosa and Enterobacter cloacae; assay: Antibacterial activity against β-lactamase producing strains (summary in words); format: cell-based
Method: as §1, §2

## CON=C(C(=O)NC1C(=O)N2C(C(=O)[O-])=C(C[n+]3nn(N)c4ccccc43)CSC12)c1csc(N)n1 [Example 18, (6R,7R)-7-[(Z)-2-(2-aminothiazol-4-yl)-2-methoxyiminoacetamido]-3-[(1-aminobenzotriazol-3-ium)methyl]-ceph-3-em-4-carboxylate]
[1]
  MIC: 0.004 µg/mL (≈ 0.00755 µM)
[2]
  MIC: 0.781 µg/mL (≈ 1.47 µM)
[3]
  MIC: 0.025 µg/mL (≈ 0.0472 µM)
[4]
  MIC: 1.56 µg/mL (≈ 2.95 µM)
[5]
  MIC: 0.049 µg/mL (≈ 0.0925 µM)
[6]
  MIC: 3.12 to 100 µg/mL (≈ 5.9 to 189 µM)
  MIC50: 25 µg/mL (≈ 47.2 µM)
  MIC90: 50 µg/mL (≈ 94.4 µM)
[7]
  MIC: 3.12 to 100 µg/mL (≈ 5.9 to 189 µM)
  MIC50: 12.5 µg/mL (≈ 23.6 µM)
  MIC90: 100 µg/mL (≈ 189 µM)
[8]
  MIC Range: 0.007 to 12.5 µg/mL
[8]; 18 h
  MIC50: 0.025 µg/mL (≈ 0.0472 µM)
  MIC90: 0.391 µg/mL (≈ 0.738 µM)
[9]
  MIC Range: 0.004 to 25 µg/mL
[9]; 18 h
  MIC50: 0.025 µg/mL (≈ 0.0472 µM)
  MIC90: 0.098 µg/mL (≈ 0.185 µM)
[10]
  MIC: 0.007 to 0.195 µg/mL (≈ 0.0132 to 0.368 µM)
  MIC50: 0.025 µg/mL (≈ 0.0472 µM)
  MIC90: 0.049 µg/mL (≈ 0.0925 µM)
[11]
  MIC: 0.007 to 0.195 µg/mL (≈ 0.0132 to 0.368 µM)
  MIC50: 0.013 µg/mL (≈ 0.0245 µM)
  MIC90: 0.025 µg/mL (≈ 0.0472 µM)
[12]
  MIC: 0.004 to 0.025 µg/mL (≈ 0.00755 to 0.0472 µM)
  MIC50: 0.013 µg/mL (≈ 0.0245 µM)
  MIC90: 0.025 µg/mL (≈ 0.0472 µM)
[13]
  MIC: 0.025 to 0.195 µg/mL (≈ 0.0472 to 0.368 µM)
  MIC50: 0.098 µg/mL (≈ 0.185 µM)
  MIC90: 0.195 µg/mL (≈ 0.368 µM)
[14]
  MIC: 0.007 to 0.195 µg/mL (≈ 0.0132 to 0.368 µM)
  MIC50: 0.025 µg/mL (≈ 0.0472 µM)
  MIC90: 0.098 µg/mL (≈ 0.185 µM)
[15]
  MIC: 0.391 to 12.5 µg/mL (≈ 0.738 to 23.6 µM)
  MIC50: 1.56 µg/mL (≈ 2.95 µM)
  MIC90: 6.25 µg/mL (≈ 11.8 µM)
[16]
  MIC: 0.195 to 12.5 µg/mL (≈ 0.368 to 23.6 µM)
  MIC50: 1.56 µg/mL (≈ 2.95 µM)
  MIC90: 6.25 µg/mL (≈ 11.8 µM)
[17]
  MIC: 1.56 to 25 µg/mL (≈ 2.95 to 47.2 µM)
  MIC50: 6.25 µg/mL (≈ 11.8 µM)
  MIC90: 12.5 µg/mL (≈ 23.6 µM)
[18]
  MIC: 0.013 to 0.098 µg/mL (≈ 0.0245 to 0.185 µM)
  MIC50: 0.025 µg/mL (≈ 0.0472 µM)
  MIC90: 0.049 µg/mL (≈ 0.0925 µM)
[19]
  MIC: 0.002 to 0.013 µg/mL (≈ 0.00378 to 0.0245 µM)
  MIC50: 0.004 µg/mL (≈ 0.00755 µM)
  MIC90: 0.007 µg/mL (≈ 0.0132 µM)
[20]
  MIC Range: 0.004 to 12.5 µg/mL
[20]; 18 h
  MIC50: 0.025 µg/mL (≈ 0.0472 µM)
  MIC90: 6.25 µg/mL (≈ 11.8 µM)
[21]
  Relative hydrolysis by β-lactamase: 0.2
[22]
  Relative hydrolysis by β-lactamase: 0.0
[23]; sc, Subcutaneous administration
  LD50 at 168 h: > 6000 mg/kg
[23]; Intravenous administration
  LD50 at 168 h: > 4000 mg/kg
[24]
  antibacterial activity (in words): superior activity
